# PubChem BioAssay (NCI)
#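 1) Cells in 96-well plates. 2) Compound, 48 h, 5 concentrations. 3) Linear interpolation between surrounding doses. 4) Unreached endpoint = highest concentration. The concentration for 50% growth inhibition is given as GI50. TGI: concentration producing complete growth inhibition.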
# Columns and labels:
# Assay in all cases: NCI-60 cell line screen, 48 h
# [1] = tested on: DU-145 prostate
# [2] = tested on: HS 578T breast
# [3] = tested on: MDA-MB-231 breast
# [4] = tested on: PC-3 prostate
# [5] = tested on: T-47D breast
# [6] = tested on: MDA-MB-435
Compound,GI50 [1] [µM],TGI [1] [µM],GI50 [2] [µM],TGI [2] [µM],GI50 [3] [µM],TGI [3] [µM],GI50 [4] [µM],TGI [4] [µM],GI50 [5] [µM],TGI [5] [µM],GI50 [6] [µM],TGI [6] [µM]
COc1ccc(/C=C/C(=O)c2cc3c(N)c(C(=O)Nc4ccccc4Cl)sc3nc2C)cc1,2.78,> 50,0.937,4.56,2.22,20.3,2.92,> 50,2.95,> 50,,
OCCCCC#Cc1ccccc1C#Cc1ccccc1,5.22,20.2,15.6,39.6,4.29,14.1,14.1,27.1,7.53,> 100,13.7,27.2
COc1cc2oc(=O)ccc2cc1C1OC(=O)C2OC21C (centres undefined),,> 100,,> 100,,> 100,,> 100,,> 100,,> 100
CCCC[C@H]1C(=O)O[C@H](C)[C@H](NC(=O)c2cccc(NC=O)c2O)C(=O)O[C@@H](C)[C@@H]1OC(=O)CC(C)C,,40.7,,37.7,,32.8,,32.9,,44.8,,44.6
OCc1cn(Cc2cccc(Cl)c2)c2ccccc12,11.6,47.8,9.27,33.7,8.37,31.7,15.5,39.9,< 0.0208,5.15,14.8,35.5
O=C(O)C(=Cc1ccnc2ccccc12)C(=O)O,,> 100,,> 100,,> 100,,> 100,,> 100,,
Cc1cn(C2CC(F)C(CO)O2)c(=O)[nH]c1=O (centres undefined),> 100,> 100,> 100,> 100,> 100,> 100,> 100,> 100,> 100,> 100,> 100,> 100
Cc1ccc(C(CN(C)C)C(=O)c2ccccc2)cc1 (centres undefined),1.93,5.12,4.7,33.6,2.64,7.07,1.84,4.36,2.35,12.7,2.45,8.92
CC(=O)Nc1ccc(/C=C/[N+](=O)[O-])cc1,,> 43.4,,32.6,,5.12,,16.7,,> 27.9,,9.23
Cc1c(N=Nc2ccc([N+](=O)[O-])cc2)nc2scc(-c3ccccc3)n12,,> 100,,> 100,,> 100,,> 100,,> 100,,> 100
CCCCn1c2cc(OCc3cn(-c4ccc(Cl)cc4)nn3)ccc2c2ccnc(C)c21,15.2,> 33.3,7.09,32.1,7.26,24.6,7.85,> 33.3,4.3,15,9.47,> 33.3
CN(C)CCCn1c2c(c3cnccc3c1=O)C(=O)c1ccccc1-2,0.49,3.43,1.04,7.53,0.623,3.1,0.485,3.93,0.509,6.99,0.49,2.48
Nc1ccc2c(SCCSc3c4ccccc4nc4cc(N)ccc34)c3ccccc3nc2c1,,> 100,,> 100,,> 100,,> 100,,> 100,,> 100
C(=N\Nc1ccccn1)/c1ccccn1,0.324,,1.41,> 100,0.501,> 100,,> 100,0.332,> 100,0.483,> 100
N#CC(=S)Nc1cccc(Cl)c1,,> 100,,,,> 100,,> 100,,> 100,,> 100
COP(=O)(OC)C(NC(c1ccccc1)c1ccccc1)c1ccc2c(c1)OCO2 (centres undefined),26.6,60.5,27.4,59.9,14,37.9,16.4,66.3,27,84.7,33.3,94.8
Oc1ccc(/C=N\Nc2ccccn2)c(O)c1,0.422,4.32,4.99,> 100,,,4.56,> 100,2.41,> 100,1.37,> 100
